Publication PMC7281707, “Antiproliferative and Carbonic Anhydrase II Inhibitory Potential of Chemical Constituents from Lycium shawii and Aloe vera: Evidence from In Silico Target Fishing and In Vitro Testing” (Pharmaceuticals, 2020)
Like-named read-outs stand apart in the source and are kept apart here. Values belong to the compound of their own block, whether it stands above or below them.

Assays:
[1] = MTT cytotoxic activity assay on MDA-MB-231 breast cancer cells; format: cell-based, human; settings: human, MDA-MB-231 breast cancer cells; for viability at 24 h, 75 µM: MDA-MB-231, 75 µM; for viability at 24 h, 75 µM / viability at 24 h, 25 µM: read-out: cell viability
Description: (§1) Cytotoxic activity was performed according to the previously described methods. Breast cancer cell lines MDA-MB-231 were maintained in Dulbecco’s modified eagle medium (DMEM, Invitrogen, Carlsbad, CA, USA). The media was supplemented with 10% fetal bovine serum (FBS) and 1% antimycotic antibiotic (Invitrogen, Carlsbad, CA, USA). Cells were cultured in a 5% CO2-humidified atmosphere at 37 °C. Stock solution (5 mg/mL) of 3-(4,5-dimethylthiazol-2-yl)-2,5-diphenyltetrazolium bromide (MTT, Merck, Darmstadt, Hesse, Germany) was prepared in phosphate-buffered saline (PBS).
(§2) Cells were seeded at a density of 1 × 10^4 cells per well in 96-well microtiter culture plates. After overnight incubation, normal growth medium was removed and replaced with either fresh medium (untreated control) or different concentrations of respective compounds in growth medium diluted from a 2 mM stock. After 24 h of incubation, MTT solution was added to each well (0.1 mg/mL in DMEM) and incubated further for 4 h at 37 °C. Upon termination, the supernatant was aspirated and the MTT formazan, formed by metabolically viable cells, was dissolved in a solubilization solution containing DMSO (100 սL) by mixing for 5 min on a gyratory shaker. The absorbance was measured at 540 nm (reference wavelength 690 nm) on an Ultra Multifunctional Microplate Reader (Bio-Rad, Hercules, California, USA). Absorbance of control (without treatment) was considered as 100% cell survival. Each treatment had three replicate wells [56]. The IC50 values of the active compounds were calculated using nonlinear regression through GraphPad Prism 4 software (La Jolla, CA, USA).

[2] = test system: MDA-MB-231 breast cancer cells; assay: as above; format: cell-based, human; settings: for IC50: MDA-MB-231, MTT, 24 h incubation, read-out: IC50 (Mean ± SEM)
Description: as §1, §2

[3] = DPPH radical scavenging (antioxidant) assay; settings: for IC50: isolated compounds
Description: Free radical scavenging activity of the test fractions/compounds was determined by measuring the change in absorbance of DPPH (l, l-Diphenyl-2-picrylhydrazyl radical, Sigma-Aldrich, St Louis, MO, USA) at 515 nm by the microplate reader (SpectraMax M2, Molecular Devices, CA, USA) as previously described. […] The IC50 values of the tested compounds were calculated using nonlinear regression through GraphPad Prism 4 software (La Jolla, CA, USA).

[4] = reported earlier by the group; cited from earlier work
bovine erythrocyte CA-II = target: T1, bovine erythrocyte CA-II (Bos taurus, UniProt P00921); assay: Carbonic anhydrase II inhibition (4-nitrophenyl acetate); format: biochemical; design: % Inhibition: concentration or dose not given beside the values; settings: CA-II in vitro; for IC50: read-out: IC50 (µM) ± (SEM)
T1 construct: purified bovine erythrocyte CA-II; purchased Sigma-Aldrich; host or cells: bovine erythrocytes (natural source)
T1 sequence (P00921 whole entry): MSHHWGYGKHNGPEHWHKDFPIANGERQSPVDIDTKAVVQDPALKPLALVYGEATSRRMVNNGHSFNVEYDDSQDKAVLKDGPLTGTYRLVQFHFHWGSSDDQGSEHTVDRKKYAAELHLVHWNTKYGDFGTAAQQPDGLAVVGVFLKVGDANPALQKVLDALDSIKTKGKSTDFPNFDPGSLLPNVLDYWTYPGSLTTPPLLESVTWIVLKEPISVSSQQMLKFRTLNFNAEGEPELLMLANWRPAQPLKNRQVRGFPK
Description: The total reaction volume of 200 µL included 20 µL of test compounds prepared in DMSO, followed by the addition of 140 µL of the HEPES–tris buffer, 20 µL of purified bovine erythrocyte CA-II (0.1 mg/mL) prepared in buffer, and 20 µL of a solution of 4-nitrophenyl acetate. A 20 µL amount of test compound was incubated with the enzyme (EC 4.2.1.1, Sigma-Aldrich, St. Louis, MO, USA) for 15 min in a 96-well flat-bottom plate. The rate of product formation was monitored with the addition of 20 µL of 4-NPA as substrate, prepared in methanol at the final concentration of 0.7 mM, at 25 °C for 30 min with regular intervals of 1 min, by using microplate readers (Bio-Rad, Molecular Devices, CA, USA). HEPES-tris was used as a buffer for the reaction at the final concentration of 20 mM at pH 7.4. The percent inhibition was calculated by using the following formula:% Inhibition = 100 − (OD test well/OD control) × 100

SMILES: C[C@@H]1O[C@@H](OCc2cc(O)c3c(c2)[C@H]([C@@H]2O[C@H](CO)[C@@H](O)[C@H](O)[C@H]2O)c2cccc(O)c2C3=O)[C@H](O)[C@H](O)[C@H]1O [Compound 11, aloinoside B]
viability at 24 h, 75 µM [1]: 64%
IC50 ([2]; Homo sapiens, MDA-MB-231, 24 h): 140 ± 13.1 µM
cytotoxic effect / cell growth inhibition ([2]; MDA-MB-231, 25 µM): no cell growth inhibition

SMILES: COc1cccc2c1C(=O)c1c(O)c3c(c(O)c1C2=O)C[C@@](O)(C(=O)CO)C[C@@H]3O[C@H]1C[C@H](N)[C@H](O)[C@H](C)O1 [Doxorubicin, reference compound]
IC50 ([2]; Homo sapiens, MDA-MB-231, 24 h): 3.31 ± 0.19 µM

SMILES: CC1OC(OCc2cc(O)c3c(c2)C(=O)c2cccc(O)c2C3=O)C(O)C(O)C1O (stereo not shown) [Compound 8, aloe emodine 11-O-rhamnoside]
viability at 24 h, 25 µM ([1]; MDA-MB-231, 25 µM): 81 to 89%
IC50 ([2]; Homo sapiens, MDA-MB-231, 24 h): 72 µM
IC50 [2]: 72.2 ± 6.29 µM

SMILES: C=C1C(=O)OC2C1CCC(O)C1(C)CCC(C)(O)C21 (stereo not shown) [Compound 3, lyciumate]
viability at 24 h, 25 µM ([1]; MDA-MB-231, 25 µM): 81 to 89%
IC50 ([2]; Homo sapiens, MDA-MB-231, 24 h): 49.4 ± 3.73 µM

SMILES: O=C(/C=C/c1ccccc1)O[C@@H]1O[C@H](CO)[C@@H](O)[C@H](O)[C@H]1OC(=O)c1cc(O)c(O)c(O)c1 [Compound 9, lyciumaside]
viability at 24 h, 25 µM ([1]; MDA-MB-231, 25 µM): 81 to 89%
IC50 ([2]; Homo sapiens, MDA-MB-231, 24 h): 76 µM
cytotoxic effect / cell growth inhibition ([2]; MDA-MB-231, 25 µM): did not inhibit cell growth significantly
loss of cell viability ([2]; MDA-MB-231, 100 µM): approximately 70%
IC50 [2]: 76.9 ± 7.04 µM
cell growth inhibition ([2]; MDA-MB-231, concentrations above 50 µM): above 50%
antioxidant IC50 [4]: 30 µg/mL

SMILES: C=C1CC[C@H]2C(=C)CC[C@H]3C(=C)C(=O)O[C@@H]3[C@@H]12 [Compound 1, dehydrocostus lactone]
viability at 24 h, 25 µM ([1]; MDA-MB-231, 25 µM): 76%
IC50 ([2]; Homo sapiens, MDA-MB-231, 24 h): 35.4 ± 2.56 µM
inhibition at 100 µM ([2]; Homo sapiens, MDA-MB-231, 100 µM, read-out: inhibition of cell proliferation): 92.1%
antioxidant activity (in words) [3]: moderate activity
% Inhibition (bovine erythrocyte CA-II): 33%
IC50 (µM) ± (SEM) (bovine erythrocyte CA-II): inactive

SMILES: O=C1c2c(O)cccc2[C@](O)([C@@H]2O[C@H](CO)[C@@H](O)[C@H](O)[C@H]2O)c2cc(CO)cc(O)c21 [Compound 10, 10-hydroxy aloin A]
viability at 24 h, 75 µM [1]: 77%
IC50 ([2]; Homo sapiens, MDA-MB-231, 24 h): 143 ± 12.7 µM
cytotoxic effect / cell growth inhibition ([2]; MDA-MB-231, 25 µM): growth-promoting effect

SMILES: O=C1c2cccc(O)c2C(=O)c2c(O)cc(CO)cc21 [Compound 5, aloe emodin]
IC50 ([2]; Homo sapiens, MDA-MB-231, 24 h): ~31 µM
loss of cell viability ([2]; MDA-MB-231, 25 µM): 50.53%
IC50 [2]: 31.4 ± 2.44 µM
% Inhibition (bovine erythrocyte CA-II): 86.3%
IC50 (bovine erythrocyte CA-II): 14.4 ± 1.14 µM

The next lines start with results.

IC50 [3]: 762 ± 2 µM
SMILES: CC(=O)Cc1cc(=O)c2c(C)cc(O)c(C3OC(COC(=O)C=Cc4ccc(O)cc4)C(O)C(O)C3O)c2o1 (stereo not shown) [Compound 13, 6′-O-coumaroylaloesin]
% Inhibition (1 mM) [3]: 73%

IC50 [3]: 55 ± 2 µM
SMILES: Oc1cc(O)c2c(c1)O[C@H](c1ccc(O)c(O)c1)[C@@H](O)C2 [Compound 4, catechin]
IC50 ([2]; Homo sapiens, MDA-MB-231, 24 h): 101 ± 7.09 µM
% Inhibition (1 mM) [3]: 78%

% Inhibition (bovine erythrocyte CA-II): 91.2%
IC50 (bovine erythrocyte CA-II): 23.3 ± 1.63 µM
SMILES: COc1cc(=O)oc2cc(O)cc(C)c12 [Compound 12, 7-demethylsiderin]
inhibition at 24 h, 25 µM ([1]; MDA-MB-231, 25 µM, read-out: cytotoxic effect / cell growth inhibition): ~14%
viability at 24 h, 75 µM [1]: 44%
IC50 ([2]; Homo sapiens, MDA-MB-231, 24 h): 60.1 ± 4.82 µM

IC50 [3]: 241 ± 1.5 µM
SMILES: C[C@@H]1C[C@@H](O)Cc2cc(O)cc(O)c21 [Compound 14, feroxidin]
% Inhibition (1 mM) [3]: 80%

IC50 [3]: 645 ± 1.5 µM
SMILES: Cc1cc(O)c2c(c1)C(=O)c1cc(O)cc(O)c1C2=O [Compound 6, emodin]
IC50 ([2]; Homo sapiens, MDA-MB-231, 24 h): 73 µM
IC50 [2]: 73.5 ± 5.89 µM
% Inhibition (1 mM) [3]: 71%

Antioxidant IC50 ± SEM ([3]; fractions and standard): 53 ± 1.32 µg/mL
SMILES: O=C1O[C@H]([C@@H](O)CO)C(O)=C1O [Ascorbic acid, reference compound]
Antioxidant % Inhibition ([3]; concentration = 1 mg/mL): 90%

% Inhibition (bovine erythrocyte CA-II): 84.7%
IC50 (bovine erythrocyte CA-II): 24.4 µM
SMILES: C=C1C(=O)O[C@@H]2/C=C(\C)CC/C=C(\C)CC[C@@H]12 [Compound 2, costunolide]
viability at 24 h, 25 µM ([1]; MDA-MB-231, 25 µM): 81 to 89%
IC50 ([2]; Homo sapiens, MDA-MB-231, 24 h): 42.1 ± 2.98 µM
